In the kinase profiling compilation of Christmann-Franck et al. (2016):

Columns and labels:
Assay in all cases: KINOMEscan competition binding
Conditions in all cases: compound 10.0 µM
[1] = target: MYLK2 (human) (UniProt Q9H1R3)
[2] = target: MAP4K5 (human) (UniProt Q9Y4K4)
[3] = target: RIOK2 (human) (UniProt Q9BVS4)
[4] = target: DCLK2 (human) (UniProt Q8N568)
[5] = target: PRKX (human) (UniProt P51817)
[6] = target: AURKB (human) (UniProt Q96GD4)
[7] = target: TYRO3 (human) (UniProt Q06418)
[8] = target: RPS6KA5 KD2 (human) (UniProt O75582)
[9] = target: PIP4K2B (human) (UniProt P78356)
[10] = target: PLK1 (human) (UniProt P53350)
[11] = target: RPS6KA5 KD1 (human) (UniProt O75582)
[12] = target: STK38L (human) (UniProt Q9Y2H1)
[13] = target: HIPK1 (human) (UniProt Q86Z02)
[14] = target: MAPK13 (human) (UniProt O15264)
[15] = target: ALK (human) (UniProt Q9UM73)
[16] = tested on: FLT3 (human), P36888 [ITD]
[17] = target: EPHB3 (human) (UniProt P54753)
[18] = target: TAOK1 (human) (UniProt Q7L7X3)
[19] = target: PTK6 (human) (UniProt Q13882)
[20] = target: DYRK1B (human) (UniProt Q9Y463)
[21] = target: LATS1 (human) (UniProt O95835)
[22] = target: TLK2 (human) (UniProt Q86UE8)
[23] = tested on: FLT3 (human), P36888 [N841I]
[24] = target: PRKG1 (human) (UniProt Q13976)
[25] = target: KDR (human) (UniProt P35968)
[26] = target: PAK2 (human) (UniProt Q13177)
[27] = target: PRKCE (human) (UniProt Q02156)
[28] = target: MKNK1 (human) (UniProt Q9BUB5)
[29] = target: CLK4 (human) (UniProt Q9HAZ1)
[30] = target: CAMK1D (human) (UniProt Q8IU85)
[31] = target: NEK1 (human) (UniProt Q96PY6)
[32] = target: MAPK11 (human) (UniProt Q15759)
[33] = target: ROS1 (human) (UniProt P08922)
[34] = target: STK17B (human) (UniProt O94768)
[35] = target: CSNK2A2 (human) (UniProt P19784)
[36] = target: EPHA7 (human) (UniProt Q15375)
[37] = target: FLT3 (human) (UniProt P36888)
[38] = target: ANKK1 (human) (UniProt Q8NFD2)
[39] = target: PRKAA1 (human) (UniProt Q13131)
[40] = target: MARK2 (human) (UniProt Q7KZI7)

Chain of CAMK1D (human) (Q8IU85 whole entry, looked up): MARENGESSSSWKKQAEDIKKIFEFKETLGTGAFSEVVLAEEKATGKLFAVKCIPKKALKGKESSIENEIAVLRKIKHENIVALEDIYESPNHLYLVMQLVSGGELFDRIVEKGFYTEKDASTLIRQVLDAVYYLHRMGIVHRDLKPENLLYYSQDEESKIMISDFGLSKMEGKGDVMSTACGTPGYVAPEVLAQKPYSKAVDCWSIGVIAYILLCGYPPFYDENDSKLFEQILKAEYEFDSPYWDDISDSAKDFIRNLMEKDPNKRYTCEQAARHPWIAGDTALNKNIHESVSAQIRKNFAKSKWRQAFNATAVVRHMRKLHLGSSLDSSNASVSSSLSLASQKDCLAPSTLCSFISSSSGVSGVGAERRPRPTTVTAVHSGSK
Chain of PTK6 (human) (Q13882 whole entry, looked up): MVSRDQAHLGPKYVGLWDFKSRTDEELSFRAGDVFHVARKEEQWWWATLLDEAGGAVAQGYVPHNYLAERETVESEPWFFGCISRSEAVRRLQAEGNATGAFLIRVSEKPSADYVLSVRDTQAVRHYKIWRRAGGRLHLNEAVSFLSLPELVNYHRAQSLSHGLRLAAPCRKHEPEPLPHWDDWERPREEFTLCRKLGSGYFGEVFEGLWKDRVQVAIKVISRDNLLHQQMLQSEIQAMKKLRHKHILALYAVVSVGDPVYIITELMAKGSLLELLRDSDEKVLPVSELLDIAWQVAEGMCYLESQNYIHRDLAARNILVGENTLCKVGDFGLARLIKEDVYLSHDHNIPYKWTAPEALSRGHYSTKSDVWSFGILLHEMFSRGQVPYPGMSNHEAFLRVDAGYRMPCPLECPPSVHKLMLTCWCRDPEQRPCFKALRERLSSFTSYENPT
Chain of NEK1 (human) (Q96PY6 whole entry, looked up): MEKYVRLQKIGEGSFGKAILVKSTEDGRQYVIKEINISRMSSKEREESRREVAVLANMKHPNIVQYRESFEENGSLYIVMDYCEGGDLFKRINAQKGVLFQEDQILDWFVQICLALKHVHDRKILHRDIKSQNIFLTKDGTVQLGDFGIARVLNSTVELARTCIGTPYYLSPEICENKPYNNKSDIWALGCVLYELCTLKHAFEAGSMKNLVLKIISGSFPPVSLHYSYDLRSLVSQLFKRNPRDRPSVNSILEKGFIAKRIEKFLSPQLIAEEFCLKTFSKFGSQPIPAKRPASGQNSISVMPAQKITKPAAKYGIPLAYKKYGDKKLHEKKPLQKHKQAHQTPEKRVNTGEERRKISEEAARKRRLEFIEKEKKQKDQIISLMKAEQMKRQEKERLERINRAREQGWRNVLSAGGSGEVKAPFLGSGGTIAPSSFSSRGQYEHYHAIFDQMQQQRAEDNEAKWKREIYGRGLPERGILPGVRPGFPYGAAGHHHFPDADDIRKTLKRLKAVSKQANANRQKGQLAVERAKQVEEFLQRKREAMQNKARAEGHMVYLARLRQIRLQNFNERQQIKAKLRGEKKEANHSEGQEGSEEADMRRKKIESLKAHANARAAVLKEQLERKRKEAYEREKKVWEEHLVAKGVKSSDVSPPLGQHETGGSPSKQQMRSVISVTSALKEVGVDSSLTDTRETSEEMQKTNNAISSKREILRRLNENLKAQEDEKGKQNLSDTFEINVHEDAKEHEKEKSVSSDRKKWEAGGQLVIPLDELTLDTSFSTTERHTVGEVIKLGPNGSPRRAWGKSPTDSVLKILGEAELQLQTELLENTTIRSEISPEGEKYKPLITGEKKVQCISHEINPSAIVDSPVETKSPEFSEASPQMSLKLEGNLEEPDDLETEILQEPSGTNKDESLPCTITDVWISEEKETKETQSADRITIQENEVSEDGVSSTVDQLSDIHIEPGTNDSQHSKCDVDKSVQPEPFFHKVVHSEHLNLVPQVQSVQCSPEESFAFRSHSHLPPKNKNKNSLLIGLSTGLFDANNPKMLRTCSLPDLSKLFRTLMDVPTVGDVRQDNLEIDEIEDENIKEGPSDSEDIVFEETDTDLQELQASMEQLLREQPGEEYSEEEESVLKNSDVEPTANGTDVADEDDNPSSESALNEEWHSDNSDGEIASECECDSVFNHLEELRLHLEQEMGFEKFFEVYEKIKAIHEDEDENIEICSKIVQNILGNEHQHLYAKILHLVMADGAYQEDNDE
Chain of PRKAA1 (human) (Q13131 whole entry, looked up): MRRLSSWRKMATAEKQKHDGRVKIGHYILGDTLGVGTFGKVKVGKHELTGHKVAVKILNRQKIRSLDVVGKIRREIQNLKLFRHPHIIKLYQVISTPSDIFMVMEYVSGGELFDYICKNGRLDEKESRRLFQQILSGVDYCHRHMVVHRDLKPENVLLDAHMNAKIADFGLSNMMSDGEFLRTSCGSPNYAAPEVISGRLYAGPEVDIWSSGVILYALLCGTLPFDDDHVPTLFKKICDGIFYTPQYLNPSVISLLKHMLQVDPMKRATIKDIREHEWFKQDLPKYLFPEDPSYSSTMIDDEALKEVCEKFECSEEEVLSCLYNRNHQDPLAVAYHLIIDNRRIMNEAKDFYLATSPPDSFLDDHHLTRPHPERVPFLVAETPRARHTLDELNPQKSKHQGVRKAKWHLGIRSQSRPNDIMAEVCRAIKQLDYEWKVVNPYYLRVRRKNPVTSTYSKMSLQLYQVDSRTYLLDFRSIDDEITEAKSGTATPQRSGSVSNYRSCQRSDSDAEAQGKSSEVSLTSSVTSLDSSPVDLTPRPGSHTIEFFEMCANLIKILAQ
Chain of MAPK13 (human) (O15264 whole entry, looked up): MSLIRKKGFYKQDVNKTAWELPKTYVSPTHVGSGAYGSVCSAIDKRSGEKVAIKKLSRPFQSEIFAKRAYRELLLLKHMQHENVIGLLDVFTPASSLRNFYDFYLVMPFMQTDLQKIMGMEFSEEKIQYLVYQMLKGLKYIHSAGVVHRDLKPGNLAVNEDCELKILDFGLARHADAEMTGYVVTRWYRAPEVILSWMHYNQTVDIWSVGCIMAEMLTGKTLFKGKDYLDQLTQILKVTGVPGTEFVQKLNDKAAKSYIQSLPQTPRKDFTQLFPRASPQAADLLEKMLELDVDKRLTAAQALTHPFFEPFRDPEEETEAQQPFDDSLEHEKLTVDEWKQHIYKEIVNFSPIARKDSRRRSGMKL
Chain of ANKK1 (human) (Q8NFD2 whole entry, looked up): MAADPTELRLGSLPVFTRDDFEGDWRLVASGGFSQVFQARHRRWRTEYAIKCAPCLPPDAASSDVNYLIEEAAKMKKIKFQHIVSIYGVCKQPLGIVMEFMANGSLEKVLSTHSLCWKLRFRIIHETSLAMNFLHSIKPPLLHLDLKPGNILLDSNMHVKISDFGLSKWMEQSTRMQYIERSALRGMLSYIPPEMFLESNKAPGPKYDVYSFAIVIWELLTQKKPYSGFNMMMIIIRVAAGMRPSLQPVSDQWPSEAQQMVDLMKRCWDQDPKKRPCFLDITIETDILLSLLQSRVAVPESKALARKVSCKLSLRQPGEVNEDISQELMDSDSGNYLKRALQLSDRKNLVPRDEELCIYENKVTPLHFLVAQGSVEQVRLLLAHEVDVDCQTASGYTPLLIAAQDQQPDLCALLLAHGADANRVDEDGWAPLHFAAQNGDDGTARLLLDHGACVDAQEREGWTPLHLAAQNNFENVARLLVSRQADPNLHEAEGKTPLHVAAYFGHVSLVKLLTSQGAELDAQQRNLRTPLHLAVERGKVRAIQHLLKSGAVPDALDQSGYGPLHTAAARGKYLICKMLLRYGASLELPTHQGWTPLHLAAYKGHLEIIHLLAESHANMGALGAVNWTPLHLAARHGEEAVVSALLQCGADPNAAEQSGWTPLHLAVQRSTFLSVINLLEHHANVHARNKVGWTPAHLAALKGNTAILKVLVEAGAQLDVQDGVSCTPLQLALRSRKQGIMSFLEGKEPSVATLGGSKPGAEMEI
Chain of RPS6KA5 KD1 (human) (O75582 whole entry, looked up): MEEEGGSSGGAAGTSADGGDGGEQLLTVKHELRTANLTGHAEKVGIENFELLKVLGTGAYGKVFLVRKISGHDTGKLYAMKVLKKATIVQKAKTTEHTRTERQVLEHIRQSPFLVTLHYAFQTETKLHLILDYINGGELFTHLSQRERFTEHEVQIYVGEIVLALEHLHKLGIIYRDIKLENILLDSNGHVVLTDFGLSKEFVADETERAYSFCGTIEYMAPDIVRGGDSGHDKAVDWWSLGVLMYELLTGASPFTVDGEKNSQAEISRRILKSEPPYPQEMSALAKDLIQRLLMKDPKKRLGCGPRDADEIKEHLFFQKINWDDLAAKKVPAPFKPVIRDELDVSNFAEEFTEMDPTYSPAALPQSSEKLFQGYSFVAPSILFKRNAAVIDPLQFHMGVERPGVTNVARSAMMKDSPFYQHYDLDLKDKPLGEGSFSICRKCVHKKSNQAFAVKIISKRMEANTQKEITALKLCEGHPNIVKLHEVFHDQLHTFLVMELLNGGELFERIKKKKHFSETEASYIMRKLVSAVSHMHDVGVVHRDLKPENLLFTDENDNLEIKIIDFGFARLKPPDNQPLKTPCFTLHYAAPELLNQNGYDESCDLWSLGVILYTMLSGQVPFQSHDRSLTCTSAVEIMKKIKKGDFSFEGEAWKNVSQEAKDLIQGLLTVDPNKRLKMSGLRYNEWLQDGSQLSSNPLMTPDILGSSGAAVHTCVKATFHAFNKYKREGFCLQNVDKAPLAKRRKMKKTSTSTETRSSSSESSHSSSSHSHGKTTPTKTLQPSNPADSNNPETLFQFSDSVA
Chain of RPS6KA5 KD2 (human) (O75582 whole entry, looked up): as above
Chain of CSNK2A2 (human) (P19784 whole entry, looked up): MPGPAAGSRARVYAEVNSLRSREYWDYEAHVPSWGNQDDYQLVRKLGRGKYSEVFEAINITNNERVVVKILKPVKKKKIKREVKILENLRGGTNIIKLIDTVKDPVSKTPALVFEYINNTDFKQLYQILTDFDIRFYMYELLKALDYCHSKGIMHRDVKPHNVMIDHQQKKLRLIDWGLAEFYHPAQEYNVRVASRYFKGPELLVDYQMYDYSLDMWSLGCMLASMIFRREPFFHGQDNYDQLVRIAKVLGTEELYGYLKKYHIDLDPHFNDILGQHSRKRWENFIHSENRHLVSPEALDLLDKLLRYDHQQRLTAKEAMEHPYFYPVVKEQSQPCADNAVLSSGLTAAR

| Compound | kinase still bound, per cent of control [1] | kinase still bound, per cent of control [2] | kinase still bound, per cent of control [3] | kinase still bound, per cent of control [4] | kinase still bound, per cent of control [5] | kinase still bound, per cent of control [6] | kinase still bound, per cent of control [7] | kinase still bound, per cent of control [8] | kinase still bound, per cent of control [9] | kinase still bound, per cent of control [10] | kinase still bound, per cent of control [11] | kinase still bound, per cent of control [12] | kinase still bound, per cent of control [13] | kinase still bound, per cent of control [14] | kinase still bound, per cent of control [15] | kinase still bound, per cent of control [16] | kinase still bound, per cent of control [17] | kinase still bound, per cent of control [18] | kinase still bound, per cent of control [19] | kinase still bound, per cent of control [20] | further results |
| --- | --- | --- | --- | --- | --- | --- | --- | --- | --- | --- | --- | --- | --- | --- | --- | --- | --- | --- | --- | --- | --- |
| COc1cc(N2CCN(C)CC2)ccc1Nc1nc(N)c(C(=O)c2c(Cl)cccc2Cl)s1 | 87% | 78% | 100% | 4.1% | 93% | 93% | 100% | 96% | 100% | 72% | 100% | 84% | 69% | 63% | 0.35% | 87% | 0% | 52% | 100% | 42% | kinase still bound, per cent of control [21]: 100%; kinase still bound, per cent of control [22]: 93%; kinase still bound, per cent of control [23]: 47%; kinase still bound, per cent of control [24]: 100%; kinase still bound, per cent of control [25]: 97%; kinase still bound, per cent of control [26]: 100%; kinase still bound, per cent of control [27]: 68%; kinase still bound, per cent of control [28]: 51%; kinase still bound, per cent of control [29]: 50%; kinase still bound, per cent of control [30]: 24%; kinase still bound, per cent of control [31]: 75%; kinase still bound, per cent of control [32]: 77%; kinase still bound, per cent of control [33]: 11%; kinase still bound, per cent of control [34]: 73%; kinase still bound, per cent of control [35]: 88%; kinase still bound, per cent of control [36]: 88%; kinase still bound, per cent of control [37]: 96%; kinase still bound, per cent of control [38]: 96%; kinase still bound, per cent of control [39]: 81%; kinase still bound, per cent of control [40]: 90% |
| O=C(NC1CC1)c1cccc(-c2ccc3c(NC(=O)C4CC4)n[nH]c3c2)c1 | 12% | 24% | 78% | 100% | 100% | 30% | 100% | 100% | 5.6% | 78% | 100% | 96% | 28% | 5% | 100% | 30% | 100% | 4.5% | 97% | 89% | kinase still bound, per cent of control [21]: 61%; kinase still bound, per cent of control [22]: 79%; kinase still bound, per cent of control [23]: 33%; kinase still bound, per cent of control [24]: 100%; kinase still bound, per cent of control [25]: 93%; kinase still bound, per cent of control [26]: 69%; kinase still bound, per cent of control [27]: 100%; kinase still bound, per cent of control [28]: 69%; kinase still bound, per cent of control [29]: 100%; kinase still bound, per cent of control [30]: 100%; kinase still bound, per cent of control [31]: 86%; kinase still bound, per cent of control [32]: 2.6%; kinase still bound, per cent of control [33]: 100%; kinase still bound, per cent of control [34]: 100%; kinase still bound, per cent of control [35]: 16%; kinase still bound, per cent of control [36]: 96%; kinase still bound, per cent of control [37]: 63%; kinase still bound, per cent of control [38]: 8%; kinase still bound, per cent of control [39]: 60%; kinase still bound, per cent of control [40]: 45% |
